Consider 1 cell line from the supplement of paper PMC10307832.

Holding throughout (assay): relative viability (nuclei count vs DMSO), 5 days (fraction); higher = more cells survive
Compound in test [1]: C1CNCCC1C2=CC(=NN2)C3=CC=NC=C3 + Nc1ncn([C@H]2C[C@H](O)[C@@H](CO)O2)c(=O)n1 [Decitabine] (partner 2 µM)
A digest of the protocol: (§1)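 Relative viability was taken as the ratio of nuclei in treated wells to nuclei in vehicle wells. Lung cancer cell lines in 1536-well plates received compounds by pin tool one day after seeding, either one drug alone or a fixed anchor-drug dose plus five library-drug doses (not always all listed) in √10 steps. Nuclei were counted on 4× images after 5 days of treatment, and values are medians of duplicate plates.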

Compound in test [2]: C[C@@H](N)c1ccc(C(=O)Nc2ccnc3[nH]ccc23)cc1 + O=C(c1cc(Cc2n[nH]c(=O)c3ccccc23)ccc1F)N1CCN(C(=O)C2CC2)CC1 [Olaparib] (partner 8 µM)
In a few lines: as §1

Compound in test [3]: C[C@@H](N)c1ccc(C(=O)Nc2ccnc3[nH]ccc23)cc1 + CC(C)C[C@H](NC(=O)[C@H](Cc1ccccc1)NC(=O)c1cnccn1)B(O)O [Bortezomib] (partner 0.002 µM)
A digest of the protocol:
as §1

Compound in test [4]: C[C@@H](N)c1ccc(C(=O)Nc2ccnc3[nH]ccc23)cc1 + Cc1nc(Nc2ncc(C(=O)Nc3c(C)cccc3Cl)s2)cc(N2CCN(CCO)CC2)n1 [Dasatinib] (partner 0.075 µM)
In a few lines: as §1

As to UMC-11, the relative viability stood at 0.4 in test [1] (first compound 0.08 µM); 0.629 in test [1] (first compound 0.8 µM); 0.697 in test [1] (first compound 2.53 µM); 0.808 in test [1] (first compound 8 µM); 0.359 in test [2] (first compound 0.04 µM); 0.427 in test [2] (first compound 0.1265 µM). Besides, the relative viability came to 0.357 in test [2] (first compound 0.4 µM); 0.303 in test [2] (first compound 1.265 µM); 0.285 in test [2] (first compound 4 µM); 0.669 in test [3] (first compound 0.04 µM); 0.717 in test [3] (first compound 0.1265 µM); 0.768 in test [3] (first compound 0.4 µM). Also, the relative viability in test [3] (first compound 1.265 µM) came to 0.286; in test [3] (first compound 4 µM), 0.415; in test [4] (first compound 0.04 µM) it was 0.543; in test [4] (first compound 0.1265 µM), 0.482; in test [4] (first compound 0.4 µM), 0.58; in test [4] (first compound 1.265 µM) it was 0.518. In addition, in test [4] (first compound 4 µM), the relative viability worked out at 0.527.
